Results: PubChem BioAssay AID1259408 (Genetic Toxicology Data Bank (GENE-TOX), 2018)
Calls of active or inactive are those of the source. No rule for the calls is given here.

Tested on: GENE-TOX genotoxicity assays, various organisms and cells
Experiment: GENE-TOX mutagenicity studies
[1] = Species/Cell Type: Mammalian polychromatic erythrocytes, Assay Type: Micronucleus test, chromosome aberrations, Assay Code: MNT+, Evaluation Type: Evaluation B (Post-1980)
[2] = Species/Cell Type: Salmonella typhimurium (one or more of the five standard strains: TA98, TA100, TA1535, TA1537, and TA1538), Assay Type: Histidine reverse gene mutation, Ames assay, Assay Code: SALT, Evaluation Type: Evaluation A (Pre-1980)
[3] = Species/Cell Type: Human lymphocytes, Assay Type: Sister-chromatid exchange (SCE) in vitro, Assay Code: SCL+D, Dose Response: With dose response, Evaluation Type: Evaluation B (Post-1980)
[4] = Species/Cell Type: Human, Assay Type: Sister-chromatid exchange (SCE) in vitro, Assay Code: SC1+D, Dose Response: With dose response, Evaluation Type: Evaluation B (Post-1980)
[5] = Species/Cell Type: Nonhuman, Assay Type: Sister-chromatid exchange (SCE) in vivo, Assay Code: SC3T, Evaluation Type: Evaluation B (Post-1980)
[6] = Species/Cell Type: Mammalian polychromatic erythrocytes, Assay Type: Micronucleus test, chromosome aberrations, Assay Code: MNTT, Evaluation Type: Evaluation A (Pre-1980)
[7] = Species/Cell Type: Salmonella typhimurium (one or more of the five standard strains: TA98, TA100, TA1535, TA1537, and TA1538), Assay Type: Histidine reverse gene mutation, Ames assay, Assay Code: SAL+*, Activation: With metabolic activation, Evaluation Type: Evaluation A (Pre-1980)
[8] = Species/Cell Type: Escherichia coli polA (W3119 vs P3478), Assay Type: Rec-assay, DNA effects (bacterial DNA repair), Assay Code: RE1T, Evaluation Type: Evaluation A (Pre-1980)
[9] = Species/Cell Type: Bacillus subtilis (H17 vs M45), Assay Type: Rec-assay, spot test, DNA effects (bacterial DNA repair), Assay Code: REWT, Evaluation Type: Evaluation A (Pre-1980)
[10] = Species/Cell Type: Drosophila melanogaster, Assay Type: Sex-linked recessive lethal gene mutation, Assay Code: SRL+, Evaluation Type: Evaluation A (Pre-1980)
[11] = Species/Cell Type: Saccharomyces cerevisiae, Assay Type: Mitotic recombination or gene conversion, Assay Code: YEC-, Evaluation Type: Evaluation A (Pre-1980)
[12] = Species/Cell Type: Mouse, Sex: Male, Assay Type: Sperm morphology, Assay Code: SPI-, Evaluation Type: Evaluation A (Pre-1980)
[13] = Species/Cell Type: Nonhuman, Assay Type: Sister-chromatid exchange (SCE) in vitro, Assay Code: SC2T, Evaluation Type: Evaluation B (Post-1980)
[14] = Species/Cell Type: Escherichia coli polA (W3119 vs P3478), Assay Type: Rec-assay, DNA effects (bacterial DNA repair), Assay Code: RE1+, Evaluation Type: Evaluation A (Pre-1980)
[15] = Species/Cell Type: Salmonella typhimurium (one or more of the five standard strains: TA98, TA100, TA1535, TA1537, and TA1538), Assay Type: Histidine reverse gene mutation, Ames assay, Assay Code: SAL+, Evaluation Type: Evaluation A (Pre-1980)
[16] = Species/Cell Type: Saccharomyces cerevisiae, Assay Type: Reverse gene mutation, Assay Code: YERT, Evaluation Type: Evaluation A (Pre-1980)
[17] = Species/Cell Type: Mammalian polychromatic erythrocytes, Assay Type: Micronucleus test, chromosome aberrations, Assay Code: MNTT, Evaluation Type: Evaluation B (Post-1980)

For `CN=C1CN(O)C(c2ccccc2)=c2cc(Cl)ccc2=N1`, which mutagenic call [1] is on record?
The mutagenic call was “active; positive”.

What about the mutagenic call (Species/Cell Type: Saccharomyces cerevisiae, Assay Type: Mitotic recombination or gene conversion, Assay Code: YEC-*, Activation: With metabolic activation, Evaluation Type: Evaluation A (Pre-1980)) of the same molecule?
The mutagenic call was “inactive; negative”.

What about the mutagenic call [2] of the same molecule?
The mutagenic call was “no conclusion”.

And the mutagenic call (Species/Cell Type: Salmonella typhimurium, Assay Type: Forward and reverse gene mutation, host-mediated assay, Assay Code: HMAT, Evaluation Type: Evaluation A (Pre-1980))?
The mutagenic call was “no conclusion”.

What does the source list for `O=[Se]=O`?
mutagenic call (Species/Cell Type: Bacillus subtilis (H17 vs M45), Assay Type: Rec-assay, spot test, DNA effects (bacterial DNA repair), Assay Code: REW+, Evaluation Type: Evaluation A (Pre-1980)): active; positive; mutagenic call [3]: active; positive; mutagenic call [4]: active; positive; mutagenic call (Species/Cell Type: Nonhuman, Assay Type: Sister-chromatid exchange (SCE) in vitro, Assay Code: SC2-, Evaluation Type: Evaluation B (Post-1980)): inactive; negative

For `O[C@@H]1c2ccccc2-c2cc3ccc4ccccc4c3cc2[C@@H]1O`, which mutagenic call (Species/Cell Type: Chinese hamster lung (V79) cells, Assay Type: Forward gene mutation at the HPRT or ouabain locus, Assay Code: V79-, Evaluation Type: Evaluation A (Pre-1980)) is on record?
Its mutagenic call is “inactive; negative”.

What about the mutagenic call (Species/Cell Type: Mouse prostate cells, Assay Type: Cell transformation, Assay Code: CTM-, Evaluation Type: Evaluation A (Pre-1980)) of the same molecule?
Its mutagenic call is “inactive; negative”.

What about the mutagenic call (Species/Cell Type: Syrian hamster embryo (SHE) cells, Assay Type: Cell transformation, clonal assay, Assay Code: CTC+, Evaluation Type: Evaluation A (Pre-1980)) of the same molecule?
Its mutagenic call is “active; positive”.

Which results are given for `CN1CCN(c2ccc3nc(-c4ccc5nc(-c6ccc(O)cc6)[nH]c5c4)[nH]c3c2)CC1`?
mutagenic call (Species/Cell Type: Nonhuman, Assay Type: Sister-chromatid exchange (SCE) in vitro, Assay Code: SC2+D, Dose Response: With dose response, Evaluation Type: Evaluation A (Pre-1980)): active; positive; mutagenic call (Species/Cell Type: Nonhuman, Assay Type: Sister-chromatid exchange (SCE) in vivo, Assay Code: SC3-, Evaluation Type: Evaluation A (Pre-1980)): inactive; negative; mutagenic call [5]: no conclusion

Which mutagenic call (Species/Cell Type: Mammalian germ cells, Sex: Male, Assay Type: Chromosome aberrations in vivo, Assay Code: CY9-, Evaluation Type: Evaluation A (Pre-1980)) does the source give for `CCCCC1C(=O)N(c2ccccc2)N(c2ccccc2)C1=O` here?
The mutagenic call was “inactive; negative”.

What about the mutagenic call [1] of the same molecule?
Its mutagenic call is “active; positive”.

And the mutagenic call [6]?
Its mutagenic call is “no conclusion”.

What about the mutagenic call (Species/Cell Type: Rodents, Sex: Male, Assay Type: Dominant lethal test, Assay Code: DLT-, Evaluation Type: Evaluation A (Pre-1980)) of the same molecule?
The mutagenic call was “inactive; negative”.

What about the mutagenic call [2] of the same molecule?
Its mutagenic call is “no conclusion”.

How did the mutagenic call [2] turn out when `O=C(O)[C@@H]1CCCN1[N+](=O)[O-]` was run?
Its mutagenic call is “no conclusion”.

For `CC(=O)Nc1ccc(NC(C)=O)c2c1C(=O)c1ccccc1C2=O`, which mutagenic call [7] is on record?
Its mutagenic call is “active; positive”.

Which results are given for `CN(CCCCOC[C@H](N)C(=O)O)N=O`?
mutagenic call (Species/Cell Type: Escherichia coli polA (W3110 vs P3478), Assay Type: Rec-assay, DNA effects (bacterial DNA repair), Assay Code: RE2-, Evaluation Type: Evaluation A (Pre-1980)): inactive; negative; mutagenic call [8]: no conclusion

How did the mutagenic call [9] turn out when `Cc1c(C2(c3cc(C(C)C)c(O)c(Br)c3C)OS(=O)(=O)c3ccccc32)cc(C(C)C)c(O)c1Br` was run?
The mutagenic call was “no conclusion”.

With `C=CCN=C=S` as the molecule, how does the mutagenic call [10] read?
Its mutagenic call is “active; positive”.

And the mutagenic call (Species/Cell Type: Drosophila melanogaster, Assay Type: Sex-linked recessive lethal gene mutation, Assay Code: SRL-, Evaluation Type: Evaluation A (Pre-1980))?
Its mutagenic call is “inactive; negative”.

How did the mutagenic call [7] turn out when `O=S(=O)(O)c1ccc(O)c2ncccc12` was run?
The mutagenic call was “active; positive”.

How did the mutagenic call [3] turn out when `CO[C@@]12[C@H](CO)C3=C(C(=O)C(C)=C(N)C3=O)N1C[C@@H]1N[C@@H]12` was run?
Its mutagenic call is “active; positive”.

And the mutagenic call [4]?
The mutagenic call was “active; positive”.

What about the mutagenic call (Species/Cell Type: Nonhuman, Assay Type: Sister-chromatid exchange (SCE) in vitro, Assay Code: SC2+D, Dose Response: With dose response, Evaluation Type: Evaluation B (Post-1980)) of the same molecule?
Its mutagenic call is “active; positive”.

With `CCNC(N)=O` as the molecule, how does the mutagenic call (Species/Cell Type: Salmonella typhimurium, Assay Type: Forward and reverse gene mutation, host-mediated assay, Assay Code: HMA+, Evaluation Type: Evaluation A (Pre-1980)) read?
The mutagenic call was “active; positive”.

How did the mutagenic call [9] turn out when `O=S(=O)(O)c1ccc(N=Nc2cc(S(=O)(=O)O)c3ccccc3c2O)c2ccccc12` was run?
Its mutagenic call is “no conclusion”.

What about the call (Species/Cell Type: Nonhuman, Assay Type: In vivo carcinogenicity studies, Assay Code: CCG-, Evaluation Type: Evaluation A (Pre-1980)) of the same molecule?
The call was “inactive; negative”.

What about the mutagenic call [11] of the same molecule?
Its mutagenic call is “inactive; negative”.

What about the mutagenic call (Species/Cell Type: Salmonella typhimurium (one or more of the five standard strains: TA98, TA100, TA1535, TA1537, and TA1538), Assay Type: Histidine reverse gene mutation, Ames assay, Assay Code: SAL-, Evaluation Type: Evaluation A (Pre-1980)) of the same molecule?
Its mutagenic call is “inactive; negative”.

For `O=NN(CCCl)C(=O)NCCO`, which mutagenic call [10] is on record?
The mutagenic call was “active; positive”.

What about the mutagenic call (Species/Cell Type: Saccharomyces cerevisiae, Assay Type: Mitotic recombination or gene conversion, Assay Code: YEC+, Evaluation Type: Evaluation A (Pre-1980)) of the same molecule?
Its mutagenic call is “active; positive”.

With `[O]=[Sn]([OH])[OH]` as the molecule, how does the mutagenic call (Species/Cell Type: Bacillus subtilis (H17 vs M45), Assay Type: Rec-assay, spot test, DNA effects (bacterial DNA repair), Assay Code: REW-, Evaluation Type: Evaluation A (Pre-1980)) read?
The mutagenic call was “inactive; negative”.

With `CSCC[C@H](N)C(=O)O` as the molecule, how does the mutagenic call [6] read?
The mutagenic call was “no conclusion”.

What about the mutagenic call [12] of the same molecule?
Its mutagenic call is “inactive; negative”.

What about the mutagenic call [13] of the same molecule?
Its mutagenic call is “no conclusion”.

Which results are given for `CCOCC`?
mutagenic call (Species/Cell Type: Aspergillus nidulans, Assay Type: Forward gene mutation, Assay Code: ASF-, Evaluation Type: Evaluation A (Pre-1980)): inactive; negative; mutagenic call [14]: active; positive; mutagenic call [12]: inactive; negative; mutagenic call [13]: no conclusion; mutagenic call [2]: no conclusion

How did the mutagenic call [8] turn out when `CCC(C)Br` (centres undefined) was run?
The mutagenic call was “no conclusion”.

Which mutagenic call [11] does the source give for `CCCCCOC(=O)COc1cc(Cl)c(Cl)cc1Cl` here?
Its mutagenic call is “inactive; negative”.

Which mutagenic call (Species/Cell Type: Allium cepa, Assay Type: Chromosome aberrations, Assay Code: ALCT, Evaluation Type: Evaluation A (Pre-1980)) does the source give for `Cc1cccc(O)c1` here?
Its mutagenic call is “no conclusion”.

What about the mutagenic call (Species/Cell Type: Human lymphocytes, Assay Type: Sister-chromatid exchange (SCE) in vitro, Assay Code: SCLT, Evaluation Type: Evaluation B (Post-1980)) of the same molecule?
Its mutagenic call is “no conclusion”.

And the mutagenic call (Species/Cell Type: Human, Assay Type: Sister-chromatid exchange (SCE) in vitro, Assay Code: SC1+, Evaluation Type: Evaluation B (Post-1980))?
Its mutagenic call is “active; positive”.

What about the mutagenic call [5] of the same molecule?
The mutagenic call was “no conclusion”.

`ONc1ccc2c(c1)Cc1ccccc1-2` was tested. Which mutagenic call (Species/Cell Type: Drosophila melanogaster, Assay Type: Sex-linked recessive lethal gene mutation, Assay Code: SRLT, Evaluation Type: Evaluation A (Pre-1980)) did it give?
The mutagenic call was “no conclusion”.

And the mutagenic call [14]?
Its mutagenic call is “active; positive”.

And the mutagenic call [15]?
Its mutagenic call is “active; positive”.

Which mutagenic call [9] does the source give for `CC1=CC(=C(c2ccc(N)c(S(=O)(=O)O)c2)c2ccc(N)c(S(=O)(=O)O)c2)C=C(S(=O)(=O)O)C1=N` here?
The mutagenic call was “no conclusion”.

For `O=c1ccc2ccc3occc3c2o1`, which mutagenic call (Species/Cell Type: Mammalian cell culture, nonhuman, Assay Type: Micronucleus test in vitro, chromosome aberrations, Assay Code: MN&+, Evaluation Type: Evaluation A (Pre-1980)) is on record?
Its mutagenic call is “active; positive”.

And the mutagenic call [16]?
Its mutagenic call is “no conclusion”.

Which mutagenic call [17] does the source give for `N#Cc1cc(I)c(O)c([N+](=O)[O-])c1` here?
Its mutagenic call is “no conclusion”.

With `[O-][Cl+]O` as the molecule, how does the mutagenic call [17] read?
The mutagenic call was “no conclusion”.

With `CCCOc1ccc(CC(=O)NN)cc1CN(CC)CC` as the molecule, how does the mutagenic call [16] read?
The mutagenic call was “no conclusion”.

What does the source list for `Oc1ccc(Cl)c(O)c1`?
mutagenic call [6]: no conclusion; mutagenic call (Species/Cell Type: Neurospora crassa, Assay Type: Aneuploidy, chromosome aberrations, Assay Code: NEN-, Evaluation Type: Evaluation A (Pre-1980)): inactive; negative

`CCCCOC(=O)c1ccccc1C(=O)OCCCC` was tested. Which mutagenic call (Species/Cell Type: Nonhuman, Assay Type: Sister-chromatid exchange (SCE) in vitro, Assay Code: SC2+, Evaluation Type: Evaluation B (Post-1980)) did it give?
The mutagenic call was “active; positive”.

What about the mutagenic call (Species/Cell Type: Nonhuman, Assay Type: Sister-chromatid exchange (SCE) in vitro, Assay Code: SC2T, Evaluation Type: Evaluation A (Pre-1980)) of the same molecule?
The mutagenic call was “no conclusion”.

What about the mutagenic call (Species/Cell Type: Saccharomyces cerevisiae, Assay Type: Reverse gene mutation, Assay Code: YER-*, Activation: With metabolic activation, Evaluation Type: Evaluation A (Pre-1980)) of the same molecule?
The mutagenic call was “inactive; negative”.

What does the source list for `C#CC(OC(=O)NC1CCCCC1)(c1ccccc1)c1ccc(C)c(C)c1` (centres undefined)?
mutagenic call (Species/Cell Type: Human diploid fibroblasts, Assay Type: Unscheduled DNA synthesis (UDS) in vitro, DNA effects, Assay Code: UDH+, Evaluation Type: Evaluation A (Pre-1980)): active; positive; mutagenic call [15]: active; positive

How did the mutagenic call [2] turn out when `CC1CC2=C(CCC2=O)c2ccc3ccccc3c21` (centres undefined) was run?
Its mutagenic call is “no conclusion”.
